Data set [1] has as its target alpha1A + alpha1C adrenergic receptor (human prostate). The data set is described as follows: [3H]-prazosin binding in human prostate. The following applies: alpha1A + alpha1C subtype, pH 7.5, 30 min, 25° C., read-out: Inhibition of the binding of [3H]-prazosin IC50.
Data set [2] concerns anaesthetised normotensive rat. The data set is described as follows: Hypotensive activity in the anaesthetised normotensive rat (IV). Type of data set: in vivo. The settings on record: for ED30: Rattus norvegicus, read-out: Reduction in mean arterial pressure ED30. As for the experimental part: In order to evaluate the in vivo activity, some of the compounds of the invention were administered (IV) in bolus form to the normotensive rat anaesthetised with urethane plus ketamine. The compounds were administered in at least three doses in experiments performed in duplicate so as to enable the calculation of ED30 values, that is, the dose in mg/kg that reduces the mean basal arterial pressure by 30%. The compounds of the invention, and several reference standards, were dissolved in dilute hydrochloric acid at a physiologically acceptable pH, and physiological solution was administered in a volume of 3 ml/kg. Evaluations were made at two time periods, that is, the intervals 0-30 min and 30-60 min after administration.

For data set [3], the target named is T1, alpha1A adrenergic receptor (rat GSM) (Rattus norvegicus, UniProt P43140).
T1 sequence (P43140 1-466): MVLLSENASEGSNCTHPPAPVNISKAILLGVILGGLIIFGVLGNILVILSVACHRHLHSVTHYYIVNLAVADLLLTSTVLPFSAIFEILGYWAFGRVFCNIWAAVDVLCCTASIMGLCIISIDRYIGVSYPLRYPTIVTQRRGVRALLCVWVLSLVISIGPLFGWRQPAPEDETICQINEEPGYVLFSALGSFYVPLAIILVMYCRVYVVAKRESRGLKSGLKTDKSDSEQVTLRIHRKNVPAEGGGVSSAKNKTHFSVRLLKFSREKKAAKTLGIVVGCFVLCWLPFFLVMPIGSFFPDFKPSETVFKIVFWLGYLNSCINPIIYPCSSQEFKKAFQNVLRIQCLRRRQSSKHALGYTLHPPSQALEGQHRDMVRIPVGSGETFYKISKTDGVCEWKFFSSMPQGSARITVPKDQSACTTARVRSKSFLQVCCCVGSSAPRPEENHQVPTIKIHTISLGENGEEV
The data set is described as follows: [3H]-prazosin binding in rat submaxillary glands (GSM). The following applies: alpha1A subtype, pH 7.4, 45 min, 25° C., read-out: Inhibition of the binding of [3H]-prazosin IC50.

The target in data set [4] is T2, alpha1B adrenergic receptor (rat liver) (Rattus norvegicus, UniProt P15823).
T2 sequence (P15823 1-515): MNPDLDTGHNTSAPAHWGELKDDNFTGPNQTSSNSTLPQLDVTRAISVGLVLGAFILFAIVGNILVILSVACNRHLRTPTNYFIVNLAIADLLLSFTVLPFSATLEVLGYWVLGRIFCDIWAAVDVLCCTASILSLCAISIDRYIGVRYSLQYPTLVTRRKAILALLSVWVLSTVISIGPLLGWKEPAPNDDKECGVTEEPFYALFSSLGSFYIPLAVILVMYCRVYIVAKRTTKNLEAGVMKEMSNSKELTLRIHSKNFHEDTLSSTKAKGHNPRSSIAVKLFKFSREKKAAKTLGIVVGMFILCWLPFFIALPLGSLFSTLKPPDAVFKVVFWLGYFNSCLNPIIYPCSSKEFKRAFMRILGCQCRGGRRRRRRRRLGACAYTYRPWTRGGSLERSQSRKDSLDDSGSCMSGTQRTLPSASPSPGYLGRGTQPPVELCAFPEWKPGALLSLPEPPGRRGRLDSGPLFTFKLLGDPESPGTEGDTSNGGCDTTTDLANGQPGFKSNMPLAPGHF
The data set is described as follows: [3H]-prazosin binding in rat liver.

Data set [5] concerns the target T3, 5-HT2 receptors (isolated rabbit aorta) (Oryctolagus cuniculus, UniProt G1SYA7).
T3 construct: Four rings formed from rabbit aorta were joined together to form a chain; from tissue; host or cells: isolated rabbit aorta rings
Put plainly: Antagonism of serotonin-induced contraction of isolated rabbit aorta. As for the experimental part: The antagonist activity of some of the compounds of the invention on the contractile activity of seratonin on isolated rabbit aorta, effected principally by way of the 5-HT2 receptors, is reported here by way of example. The method of Feniuk et al [Br. J. Pharmacol. (1985), 86, 697-704] was used, with slight modifications. Four rings formed from rabbit aorta were joined together to form a chain; the preparation was placed in an isolated organ bath in the presence of Krebs at 37° C. and attached to an isometric transducer, a tension of 2 g being applied and oxygenation was carried out continuously with O2 --CO2 (95-5 v/v). A seratonin concentration(0.3 μM) was used that was capable of causing sub-maximal contraction of the preparation. […] The results obtained in this way are given in Table 4 below which, for several of the compounds of the invention gives IC50 values calculated by the regression method on a set of at least 2 experiments at 5 different concentrations for each of the compounds examined, these being compared with values obtained for several reference compounds.

In data set [6] the test system is spontaneously hypertensive (SHR) rat. The data set is described as follows: Anti-hypertensive activity in the spontaneously hypertensive (SHR) rat (oral). Type of data set: in vivo. The settings on record: for ED20: Rattus norvegicus, 2 h, 0-120 min, NC: not calculable, read-out: Systolic pressure ED20 (0-120 min). The source says:
Animals having a mean basal systolic pressure of not less than 180 mmHg were used.

Where [7] appears, read: 0.5 h, IV bolus, interval 0-30 min.
Setting [8] is: 1 h, IV bolus, interval 30-60 min.
[9] abbreviates: isolated rabbit aorta, 37° C., compound 10 min before agonist, limits (p < 0.05).
The mark [10] stands for this setting: read-out: Inhibition of the binding of [3H]-prazosin IC50, rat liver, alpha1B subtype.
Setting [11] is: read-out: Inhibitory effect (IC50) on the contraction caused by 0.3 μM serotonin, isolated rabbit aorta, 37° C., compound 10 min before agonist, limits (p < 0.05).

Like-named read-outs stand apart in the source and are kept apart here.

T3 sequence (G1SYA7 1-469): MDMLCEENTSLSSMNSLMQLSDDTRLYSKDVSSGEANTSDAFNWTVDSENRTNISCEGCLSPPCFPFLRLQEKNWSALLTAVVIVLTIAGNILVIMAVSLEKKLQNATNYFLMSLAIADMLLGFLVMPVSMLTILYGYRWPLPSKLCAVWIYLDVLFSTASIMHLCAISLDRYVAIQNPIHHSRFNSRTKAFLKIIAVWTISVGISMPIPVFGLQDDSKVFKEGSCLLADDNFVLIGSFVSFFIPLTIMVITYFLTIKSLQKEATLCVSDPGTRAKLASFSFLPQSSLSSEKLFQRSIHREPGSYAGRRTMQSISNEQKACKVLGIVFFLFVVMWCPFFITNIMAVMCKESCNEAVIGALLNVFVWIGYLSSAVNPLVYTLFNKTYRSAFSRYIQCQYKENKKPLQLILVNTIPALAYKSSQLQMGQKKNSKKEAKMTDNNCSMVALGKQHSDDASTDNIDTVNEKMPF

As a reminder, the IC50 is the concentration that gives 50% inhibition. As to `COc1cc2nc(N3CCC(c4ccccc4)CC3)nc(N)c2cc1OC` [Compound 1], the IC50 in data set [1] is 0.002 µM; in data set [3], 0.0061 µM; in data set [4], 0.013 µM; in data set [5] (setting [9]), 16.5 µM. Also, the ED30 in data set [2] (setting [7]) was found to be 0.19 mg/kg; in data set [2] (setting [8]), 0.31 mg/kg. For the same compound, the “Cardiac frequency, max effect at 3 mg/kg” value in data set [6] (3 mg/kg) is recorded as -0.8 % vs basal. The “Systolic pressure, max effect at 3 mg/kg” value in data set [6] (3 mg/kg) is given as -7.5 % vs basal.
Take `COc1cc2nc(N3CCC(c4ccccc4OC)CC3)nc(N)c2cc1OC` [Compound 2]: the IC50 in data set [1] is 0.0078 µM; in data set [3] it was 0.0188 µM; in data set [4] it was 0.0077 µM; in data set [5] (setting [9]), 37.3 µM. For the same compound, the ED30 stood at 0.5 mg/kg in data set [2] (setting [7]) and 0.55 mg/kg in data set [2] (setting [8]). Besides, in data set [6] (3 mg/kg), the “Cardiac frequency, max effect at 3 mg/kg” value is given as “+2.1 % vs basal”. In data set [6] (3 mg/kg), the “Systolic pressure, max effect at 3 mg/kg” value is listed as -6.4 % vs basal.
As to `CCOc1ccccc1C1CCN(c2nc(N)c3cc(OC)c(OC)cc3n2)CC1` [Compound 3], the IC50 in data set [1] was 0.0108 µM; in data set [3] it was 0.0107 µM; in data set [4] (setting [10]) it was 0.014 µM; in data set [5] (setting [11]), 73.4 µM. Moreover, the ED30 in data set [2] (setting [7]) is 0.32 mg/kg; in data set [2] (setting [8]) it was 0.35 mg/kg.
Take `COc1cc2nc(N3CCC(c4ccco4)CC3)nc(N)c2cc1OC` [Compound 4]: the IC50 in data set [1] is 0.0038 µM; in data set [3] it was 0.0031 µM; in data set [4] (setting [10]), 0.0017 µM; in data set [5] (setting [11]), 32.7 µM. For the same compound, the ED30 in data set [2] (setting [7]) came to 0.08 mg/kg; in data set [2] (setting [8]) it was 0.1 mg/kg. The “Cardiac frequency, max effect at 3 mg/kg” value in data set [6] (3 mg/kg) is on record as “+0.6 % vs basal”. Besides, in data set [6] (3 mg/kg), the “Systolic pressure, max effect at 3 mg/kg” value is given as -15.5 % vs basal. For the same compound, the ED20 in data set [6] was 13.1 mg/kg.
As for `COc1cc2nc(N3CCC(c4ccc(C)o4)CC3)nc(N)c2cc1OC` [Compound 5], the IC50 in data set [1] was 0.0017 µM; in data set [3], 0.0035 µM; in data set [4] it was 0.0021 µM; in data set [5] (setting [9]), 8.41 µM; in data set [5] (rabbit aorta, 0.3 μM serotonin, conversion of 3.1 μg/ml, read-out: IC50, 5-HT2 antagonist activity), 7.6 µM. Further, the ED30 in data set [2] (setting [7]) and in data set [2] (setting [8]) was 0.03 mg/kg each time. Besides, the “times less than ketanserine (IC50)” value in data set [5] (rabbit aorta, versus ketanserine IC50 0.09 μg/ml) is “approximately 30 times”. Moreover, the “anti-hypertensive action (in words)” value in data set [6] was “about as powerful as prazosin”. In addition, the “Cardiac frequency, max effect at 3 mg/kg” value in data set [6] (3 mg/kg) was -0.2 % vs basal. For the same compound, the “Systolic pressure, max effect at 3 mg/kg” value in data set [6] (3 mg/kg) is given as -22.1 % vs basal. In addition, the ED20 in data set [6] is 2 mg/kg.
Take `COc1cc2nc(N3CCC(c4cccs4)CC3)nc(N)c2cc1OC` [Compound 6]: the IC50 in data set [1] was 0.0045 µM; in data set [3] it was 0.0041 µM; in data set [4], 0.006 µM; in data set [5] (setting [9]), 88.3 µM. The ED30 in data set [2] (setting [7]) came to 0.06 mg/kg; in data set [2] (setting [8]) it was 0.08 mg/kg. Besides, the “Cardiac frequency, max effect at 3 mg/kg” value in data set [6] (3 mg/kg) was “+2.7 % vs basal”. For the same compound, in data set [6] (3 mg/kg), the “Systolic pressure, max effect at 3 mg/kg” value is -8.4 % vs basal.
Turning to `COc1cc2nc(N3CCC(c4cc5ccccc5o4)CC3)nc(N)c2cc1OC` [Compound 8], the IC50 in data set [1] was 0.02 µM; in data set [3], 0.0184 µM; in data set [4], 0.0052 µM; in data set [5] (setting [9]) it was 16.6 µM. The ED30 is 0.07 mg/kg in data set [2] (setting [7]) and 0.09 mg/kg in data set [2] (setting [8]). Also, the “anti-hypertensive action (in words)” value in data set [6] is “about as powerful as prazosin”. Further, in data set [6] (3 mg/kg), the “Cardiac frequency, max effect at 3 mg/kg” value is given as -5.2 % vs basal. The “Systolic pressure, max effect at 3 mg/kg” value in data set [6] (3 mg/kg) was -20.2 % vs basal. Further, the ED20 in data set [6] was 2.6 mg/kg.
In the case of `COc1cc2nc(N3CCN(C(=O)c4ccco4)CC3)nc(N)c2cc1OC` [Prazosin, reference compound], in data set [2] (setting [7]), the ED30 is 0.02 mg/kg. Also, in data set [2] (setting [8]), the ED30 was determined as 0.05 mg/kg. This compound gave an IC50 in data set [5] (setting [9]) greater than 130 µM. In addition, the “5-HT2-antagonist activity (in words)” value in data set [5] (rabbit aorta) was “inactive until higher doses (50 μg/ml)”. In data set [6] (3 mg/kg), the “Cardiac frequency, max effect at 3 mg/kg” value is recorded as “+9.7 % vs basal” and the “Systolic pressure, max effect at 3 mg/kg” value is -20.0 % vs basal. Also, the “increase in cardiac frequency over the basal frequency” value in data set [6] (3 mg/kg, significant) was “approximately 10%”. The ED20 in data set [6] was 2.8 mg/kg.
As to `COc1ccc(CCN(C)CCCC(C#N)(c2ccc(OC)c(OC)c2)C(C)C)cc1OC` (stereo not drawn) [Verapamil, reference compound], the “hypotensive activity compared with prazosin/compounds (in words)” value in data set [2] (IV bolus) is listed as “less active”. Also, in data set [2] (iv, 0.5 h), the ED30 worked out at 0.63 mg/kg. Also, the ED30 in data set [2] (iv, 1 h) was 1.06 mg/kg. Moreover, in data set [6] (3 mg/kg), the “Cardiac frequency, max effect at 3 mg/kg” value is reported as “+2.8 % vs basal”; the “Systolic pressure, max effect at 3 mg/kg” value is listed as -9.0 % vs basal; the “reduction of arterial pressure” value is no more than 9%.

These data come from patent US5985885A, “Quinazoline-4-amino-2-(piperidine-1-yl-4-substituted) derivatives having antihypertensive activity, a method for their preparation and their pharmaceutical use” (priority 1996, dated 1999).
